The record followed here is patent US8778627B2, “Enzyme substrate comprising a functional dye and associated technology and methods” (Biotium, Inc., priority 2006, dated 2014).

One assay deals with calf thymus DNA. The assay can be described thus: Measurement of fluorescence spectra in the presence of DNA. The class given is binding. Particulars: 1 μM in pH 7.4 TE buffer, excess calf thymus DNA, excitation 600 nm, FIG. 1. As for the experimental part:
Stock solutions of nucleic acid dye-based substrates and respective control compounds were prepared by dissolving each compound in DMSO at 1 mg/mL concentration. The stock solutions were diluted into a pH 7.4 buffer (TE buffer) comprising Tris (10 mM), EDTA (1 mM) and NaCl (50 mM) to give a final concentration of 1 μM. Dye solutions containing an excess amount of DNA were prepared by adding a sufficient amount of calf thymus DNA calculated to yield a ratio of greater to or equal to 50 DNA base pairs per dye molecule. A fluorescence spectrum for each dye was recorded before and after the addition of DNA using a Jasco F-750 fluorescence spectrophotometer, with the fluorescence excitation wavelength set at λA-25 nm or 600 nm, where λA is the absorption maximum for each dye in the presence or the absence of DNA, and emission collection wavelength set at 660 nm.

The subject of the next assay is calf thymus dsDNA. Description: DNA titration of nucleic acid dye-based substrates and controls. The following applies: 1 μM in pH 7.4 TE buffer, 30-minute incubation at room temperature, excitation 485 nm, emission 530 nm. Format: binding. The protocol: In this example, nucleic acid dye-based caspase-3 substrates, Substrate No. 19 and Substrate No. 20, and respective control compounds, Compound No. 7 and Compound No. 24, were titrated with varying amounts of calf thymus dsDNA and the fluorescence signals of the solutions were recorded. Briefly, the substrates and the respective controls were prepared as generally described above in relation to Example 51. Multiple wells of a 96-well plate were loaded with the substrate (100 μL, 1 μM) or the respective control (100 μL, 1 μM). Each well was then titrated with 5 μL of one of the seven DNA stock solutions of 2.1, 4.1, 8.2, 16.4, 32.8 65.6 and 127.5 μg/mL concentration, respectively, in pH 7.4 TE buffer. After a 30-minute incubation at room temperature, the fluorescence reading of each well was recorded with a SpectraMax Germini XS fluorescence microplate reader (Molecular Devices Corp., Sunnyvale, Calif.), with the excitation wavelength and the emission collection wavelength set at 485 nm and 530 nm, respectively.
DNA titrations of Compound No. 21, a nucleic acid dye-based HDAC substrate, and Compound No. 23, a control associated with Compound No. 21, were titrated with varying amounts of calf thymus dsDNA in the manner generally described above in relation to Example 52.

The next assay deals with T1, caspase-3 (Homo sapiens, UniProt P42574).
T1 construct: purchased Biovision Inc., Mountain View, Calif
T1 sequence (P42574 29-175 limits assumed): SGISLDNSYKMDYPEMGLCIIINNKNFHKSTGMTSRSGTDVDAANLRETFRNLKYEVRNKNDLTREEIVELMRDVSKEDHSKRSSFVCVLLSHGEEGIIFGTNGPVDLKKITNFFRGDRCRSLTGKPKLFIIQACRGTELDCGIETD
T1 sequence (P42574 176-277 limits assumed): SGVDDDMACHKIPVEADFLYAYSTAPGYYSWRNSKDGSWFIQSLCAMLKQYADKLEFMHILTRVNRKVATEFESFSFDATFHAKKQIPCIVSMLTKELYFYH
Description: In vitro enzymatic assay for nucleic acid dye-based substrates for caspase-3. Format: biochemical. The following applies: 10 μM, caspase-3 0.1 unit/mL, salmon sperm dsDNA 3.3 μg/mL, excitation 485 nm, emission 530 nm, FIG. 3. As for the experimental part: In this example, nucleic acid dye-based caspase-3 substrates were assayed in the presence of caspase-3 and dsDNA by monitoring the fluorescence increase. In one example, Substrate No. 19 (10 μM) was incubated with caspase-3 (0.1 unit/mL) (Biovision Inc., Mountain View, Calif.) and salmon sperm dsDNA (3.3 μg/mL) in a caspase assay buffer (100 μL; HEPES buffer (50 mM, pH 7.4), NaCl (100 mM), EDTA (1 mM), CHAPS (0.1%), DTT (10 mM), PMSF (1 mM) and glycerol (10%)) in a well of a black 96-well plate. The plate was then placed in a SpectraMax Germini XS fluorescence microplate reader (Molecular Devices Corp., Sunnyvale, Calif.), with the excitation wavelength set at 485 nm and emission collection wavelength set at 530 nm, to measure the fluorescence signal over time, as shown in FIG. 3.

Assay [1] deals with T2, caspase-3 activity in Jurkat cells (Homo sapiens, UniProt P42574).
T2 construct: A flask of Jurkat cells were induced with staurosporine (1 μM) for apoptosis; endogenous in cells; host or cells: Jurkat cells induced with staurosporine
T2 sequence (P42574 29-175 limits assumed): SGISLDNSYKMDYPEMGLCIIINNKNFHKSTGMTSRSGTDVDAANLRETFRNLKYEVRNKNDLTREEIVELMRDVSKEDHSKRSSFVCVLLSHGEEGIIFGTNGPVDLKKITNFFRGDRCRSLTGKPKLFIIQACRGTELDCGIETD
T2 sequence (P42574 176-277 limits assumed): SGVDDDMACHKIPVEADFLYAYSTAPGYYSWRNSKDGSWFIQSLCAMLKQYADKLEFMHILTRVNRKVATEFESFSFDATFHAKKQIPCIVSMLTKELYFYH
The assay can be described thus: Detection of caspase-3 activity in live cells by flow cytometry. The class given is cell-based. Particulars: for caspase-3-positive cell identification: Jurkat cells, substrate 10 μM for 15 minutes, FL1 channel. As for the experimental part:
In this example, Jurkat cells were used to test whether Substrate No. 19 may be used to detect caspase-3 activity, or a lack thereof, within live cells by generating a nucleic acid dye that forms fluorescence upon binding to DNA. A flask of Jurkat cells were induced with staurosporine (1 μM) for apoptosis. Aliquots of the induced Jurkat cells were taken at 1 hour, 2.5 hours and 5 hours after induction, respectively, and aliquots of uninduced Jurkat cells, which served as negative controls, were taken at the same times. Substrate No. 19 was added to each Jurkat cell culture medium to give a final concentration of 10 μM and each resulting medium was allowed to incubate for 15 minutes before undergoing flow cytometry analysis using the FL1 channel for green fluorescence. […] For example, a stimulation time of 1 hour, 2.5 hours and 5 hours was associated with a 10%, 80% and 97% caspase-3-positive cell identification, respectively, as may be seen in the representations B, C and D of FIG. 4, respectively. One hour of staurosporine induction was required for Substrate No. 19 to reliably detect the presence of caspase-3-positive cells. Detection of intracellular caspase-3 activity via Substrate No. 19 is possible after only 15 minutes of incubation time, without necessitating cell destruction. Thus, it may be possible to continuously monitor enzymatic activity over more or less the entire course of cellular life via an enzyme substrate such as Substrate No. 19.
Background: A flow cytometer gives signals particle by particle.

Assay [2] concerns the target T2, caspase-3 activity in Jurkat cells. The assay can be described thus: Detection of caspase-3 activity in live cells by fluorescence microscopy. The class given is cell-based. Particulars: Jurkat cells induced 4 hours with staurosporine (1 μM), substrate 10 μM for 15 minutes, confocal microscope, FIG. 5. As for the experimental part: (§1) Substrate No. 19 (10 μM) was incubated for 15 minutes with Jurkat cells that had been induced for 4 hours with staurosporine (1 μM). Separately, Substrate No. 19 (10 μM) was incubated for 15 minutes with uninduced Jurkat cells, which served as a negative control. For each of the cell cultures, cells (1×10^5) were taken, pelleted and then resuspended in Annexin V binding buffer (100 μL; HEPES buffer (10 mM, pH 7.4), NaCl (140 mM) and CaCl2 (2.5 mM)) in a tube, whereupon Texas Red-conjugated Annexin V (5 μL, 50 μg/mL) (Biotium Inc., Hayward, Calif.) was added to each tube. After 15 minutes of incubation at room temperature, a cell culture (5 μL) of the induced cells or the uninduced cells was spotted onto a slide, which was then mounted with a coverslip and sealed with nail polish. The cells were examined with a 510 Meta UV/Vis confocal microscope. […] The green fluorescence is indicative of nuclear DNA staining by the nucleic acid dye that is formed from substrate cleavage via caspase-3. The red fluorescence is indicative of the staining of phosphatidylserine (PS) by the Texas Red-conjugated Annexin V, a fluorescent stain that is used to identify apoptotic cells.

Another assay relates to phosphatidylserine (PS). Description: Texas Red-Annexin V staining of apoptotic Jurkat cells by confocal microscopy. Format: cell-based. Particulars: Jurkat cells induced 4 hours with staurosporine (1 μM), 15 minutes of incubation at room temperature, confocal microscope, FIG. 5. The protocol:
as §1

On to `C[n+]1c(/C=C/C=C2\C=CN(CCCC(=O)NCCN)c3ccccc32)sc2ccccc21` [Compound No. 24], for which the “fluorescence emission in the presence of DNA, control versus substrate” value in the assay with calf thymus DNA is given as “substantially more fluorescent than Substrate No. 20”. The “fluorescence response to dsDNA concentration (DNA titration)” value (from here on “fluorescence response”) in the assay on calf thymus dsDNA is given as “fluorescently responsive to the amount of DNA present”.

Turning to `C[n+]1c(C=C2C=CN(CCCCCC(=O)NCCN)c3ccccc32)sc2ccccc21` [Compound No. 7], in the assay with calf thymus dsDNA, the “fluorescence response” value is reported as “fluorescently responsive to the amount of DNA present”.

For `CC(=O)NCCCCC(NC(=O)OC(C)(C)C)C(=O)NCCNC(=O)CCCCCN1C=C/C(=C\c2sc3ccccc3[n+]2C)c2ccccc21.[I-]` (stereo not drawn) [Compound No. 21], in the assay on calf thymus dsDNA, the “fluorescence response” value is given as “relatively insensitive to the presence of DNA”.

Regarding `CC(=O)N[C@@H](CC(=O)O)C(=O)N[C@@H](CCC(=O)O)C(=O)N[C@H](C(=O)N[C@@H](CC(=O)O)C(=O)NCCNC(=O)CCCCCN1C=CC(=Cc2sc3ccccc3[n+]2C)c2ccccc21)C(C)C` [Substrate No. 19], at caspase-3, the “fluorescence increase over time with caspase-3 and dsDNA” value is reported as “substrate for caspase-3 enzyme”. Further, the caspase-3-positive cell identification is 10% in assay [1] (staurosporine (1 μM) stimulation 1 hour), 80% in assay [1] (staurosporine (1 μM) stimulation 2.5 hours) and 97% in assay [1] (staurosporine (1 μM) stimulation 5 hours). For the same molecule, the “staurosporine induction required to reliably detect caspase-3-positive cells” value in assay [1] (live Jurkat cells, staurosporine 1 μM, substrate 10 μM) is on record as “One”. In addition, in assay [1] (live Jurkat cells, without cell destruction), the “incubation time after which detection of intracellular caspase-3 activity is possible” value was determined as 15 min. The “fluorescent staining pattern of cells” value in assay [2] is recorded as “green fluorescence in cellular nuclei”. Also, in the assay on calf thymus dsDNA, the “fluorescence response” value is recorded as “relatively insensitive to the presence of DNA”.

In the case of `C[n+]1c(/C=C2\C=CN(CCCCCC(=O)NCCNC(=O)C(CCCCN)NC(=O)OC(C)(C)C)c3ccccc32)sc2ccccc21.[I-]` (stereo not drawn) [Compound No. 23], the “fluorescence response” value in the assay with calf thymus dsDNA is given as “fluorescently responsive to the amount of DNA present”.

As to `CC(=O)N[C@H](CC(=O)O)C(=O)N[C@H](CCC(=O)O)C(=O)N[C@@H](C(=O)N[C@H](CC(=O)O)C(=O)NCCNC(=O)CCCN1C=CC(=CC=Cc2sc3ccccc3[n+]2C)c2ccccc21)C(C)C` [Substrate No. 20], the “fluorescence response” value in the assay with calf thymus dsDNA is on record as “relatively insensitive to the presence of DNA”.

B1: Texas Red-conjugated Annexin V: fluorescent stain (Biotium Inc.) that is used to identify apoptotic cells by staining phosphatidylserine (conjugate, UniProt P08758 2-320, looked up)
Annexin A5: AQVLRGTVTDFPGFDERADAETLRKAMKGLGTDEESILTLLTSRSNAQRQEISAAFKTLFGRDLLDDLKSELTGKFEKLIVALMKPSRLYDAYELKHALKGAGTNEKVLTEIIASRTPEELRAIKQVYEEEYGSSLEDDVVGDTSGYYQRMLVVLLQANRDPDAGIDEAQVEQDAQALFQAGELKWGTDEEKFITIFGTRSVSHLRKVFDKYMTISGFQIEETIDRETSGNLEQLLLAVVKSIRSIPAYLAETLYYAMKGAGTDDHTLIRVMVSRSEIDLFNIRKEFRKNFATSLYSMIKGDTSGDYKKALLLLCGEDD
modifications: Texas Red dye
notes: fluorescent stain (Biotium Inc.) that is used to identify apoptotic cells by staining phosphatidylserine
As to B1, the “fluorescent staining pattern of cells” value in the assay on phosphatidylserine (PS) is “red fluorescence on a cytoplasmic membrane”.
